Assay results as given in US20220265817A1, “THERAPEUTIC COMPOSITIONS AND METHODS FOR TREATING HEPATITIS B” (priority 2017, published 2022).
Several values for one entry are separate records, joined by “and”; a condition that tells them apart may be missing. Equal entries are not always repeated. Where two headings read alike, the source gives them in different places.

Legend:
[1] = test system: D type HBV in primary human hepatocytes (HBsAg); test: microbe, parasite or virus in culture; format: cell-based
Procedure: The mouse liver perfusion was applied to isolate PHHs. The isolated hepatocytes were further purified by Percoll. The cells were resuspended with culture media and seeded into the 96-well plates (6×10^4 cell/well) or 48-well plates (1.2×10^5 cell/well). The PHHs were infected with a D type HBV one day post seeding (day 1).
On day 2, the test compounds were diluted and added into the cell culture plates. The culture media containing the compounds were refreshed every other day. The cell culture supernatants were collected on day 8 for the HBV DNA and antigen determinations.
The compounds were tested at 7 concentrations, 3-fold dilution, in triplicate.
Two compounds were tested at 5×5 matrix, in triplicate plates.
HBsAg/HBeAg in the culture supernatants harvested on days 8 were measured by the HBsAg/HBeAg ELISA kit (Autobio) according to the manual. The samples were diluted with PBS to get the signal in the range of the standard curve. The inhibition rates were calculated with the formula below. The combination effect was analyzed by the MacSynergy software.
% Inh. HBsAg=[1-HBsAg quantity of sample/HBV quantity of DMSO control]×100.

[2] = test system: hepatitis B virus (HBV); test: Humanized liver chimeric mouse model of chronic HBV infection, serum HBV DNA by quantitative PCR; format: in vivo; conditions: mean
Procedure: This work was conducted in a well-established humanized liver chimeric mouse model of chronic hepatitis B virus (HBV) infection (Tsuge et al., Hepatology, 42(5), 1046-54 (2005)). A persistent level of HBV infection was established in the animals prior to the treatment phase which started at Day 0.
The anti-HBV effects were assessed based on serum HBsAg levels using the GS HBsAg EIA 3.0 enzyme linked immunosorbent assay kit from Bio-Rad Laboratories as per manufacturer instructions; and serum HBV DNA levels measured from total extracted DNA using a quantitative PCR assay (primer/probe sequences from Tanaka et al., Journal of Medical Virology, 72, 223-229 (2004)).

[3] = test system: HBV rcDNA in AML12-HBV10 cells; test: AML12-HBV10 cell culture system, rcDNA quantitation using bDNA assay, MacSynergy II; format: cell-based, mouse hepatocyte cell line; conditions: Hepatitis B virus, AML12HBV10, in Mus musculus, 48 h, read-out: Inhibitor EC50
Procedure: In vitro combination studies were conducted using the method of Prichard and Shipman (Prichard M N, and Shipman C Jr., Antiviral Research, 1990, 14 (4-5), 181-205; and Prichard M N, et. al., MacSynergy II). The AML12-HBV10 cell line was developed as described in Campagna et al. (Campagna et. al., J. Virology, 2013, 87(12), 6931-6942). It is a mouse hepatocyte cell line stably transfected with the HBV genome, and which can express HBV pregenomic RNA and support HBV rcDNA (relaxed circular DNA) synthesis in a tetracycline-regulated manner. AML12-HBV10 cells were plated in 96 well tissue-culture treated microtiter plates in DMEM/F12 medium supplemented with 10% fetal bovine serum +1% penicillin-streptomycin without tetracycline and incubated in a humidified incubator at 37° C. and 5% CO2 overnight. […] The two inhibitors were tested both singly as well as in combinations in a checkerboard fashion such that each concentration of inhibitor A was combined with each concentration of inhibitor B to determine their combination effects on inhibition of rcDNA production. Following a 48 hour-incubation, the level of rcDNA present in the inhibitor-treated wells was measured using a bDNA assay (Affymetrix) with HBV specific custom probe set and manufacturer's instructions. […] Concurrently, the effect of inhibitor combinations on cell viability was assessed using replicate plates that were used to determine the ATP content as a measure of cell viability using the cell-titer glo reagent (Promega) as per manufacturer's instructions.

CC(C)OC(=O)OCOP(=O)(CO[C@H](C)Cn1cnc2c(N)ncnc21)OCOC(=O)OC(C)C.O=C(O)/C=C/C(=O)O [TDF, tenofovir disoproxil fumarate, reference compound] was tested, and the “AVERAGE % INHIBITION (HBsAg)” value ([1]; 3 replicates, Compound 24 0.00 nM, TDF nM: 10.00, 3.33, 1.11, 0.37, 0.12) was −3.32% and −3.31% and −6.65% and −1.28% and −3.54%, the inhibition at 0.00012 µM ([1]; Hepatitis B virus, Hepatocyte, TDF 0.12 nM alone, read-out: AVERAGE % INHIBITION HBsAg) was 3.39% and the inhibition at 0.00037 µM ([1]; Hepatitis B virus, Hepatocyte, TDF 0.37 nM alone, read-out: AVERAGE % INHIBITION HBsAg) was -0.3%. The inhibition at 0.00333 µM ([1]; Hepatitis B virus, Hepatocyte, read-out: AVERAGE % INHIBITION HBsAg, TDF 3.33 nM alone) was -0.9%, the inhibition at 0.01 µM ([1]; Hepatitis B virus, Hepatocyte, read-out: AVERAGE % INHIBITION HBsAg, TDF 10.00 nM alone) was -5.9% and the EC50 ([1]; Hepatitis B virus, Hepatocyte, read-out: Inhibitor A EC50) was > 0.1 µM. For the same compound, the “ADDITIVE INHIBITION (HBsAg)” value ([1]; expected from additive interaction, Compound 24 0.00 nM, TDF nM by row: r27 10.00, r28 3.33, r29 1.11, r30 0.37, r31 0.12) was −6.65% and −1.28% and −3.54% and −3.32% and −3.31%.

C=C1[C@H](CO)[C@@H](O)C[C@@H]1n1cnc2c(=O)[nH]c(N)nc21 [Entecavir] was tested, and the “Serum HBV DNA” value ([2]; Day 0 (start of treatment), SEM in the line below) was 1.48E+08 Copies/mL, the “Serum HBV DNA” value ([2]; Day 7, Compound 3 oral 100 mg/kg twice daily, SIRNA-NP iv 3 mg/kg every 2 weeks, ETV oral 1.2 μg/kg daily, pegIFN α-2a sc 30 μg/kg twice a week) was 2.35E+07 Copies/mL and the “Serum HBV DNA” value ([2]; Day 14, same dosages) was 1.38E+07 Copies/mL. The “Serum HBV DNA” value ([2]; Day 21, same dosages) was 1.35E+07 Copies/mL, the “Serum HBV DNA” value ([2]; Day 28, same dosages) was 9.33E+06 Copies/mL and the EC50 [3] was 0.012 µM.

Work on O=C(Nc1ccc(F)c(F)c1)c1cc(S(=O)(=O)NC2CCCC2)ccc1F [Compound 22] yielded an inhibition at 0.06173 µM ([1]; Hepatitis B virus, Hepatocyte, read-out: AVERAGE % INHIBITION HBsAg, COMPOUND 22 61.73 nM alone) of -9.16%, an inhibition at 0.18519 µM ([1]; Hepatitis B virus, Hepatocyte, read-out: AVERAGE % INHIBITION HBsAg, COMPOUND 22 185.19 nM alone) of -10.2% and an inhibition at 0.55556 µM ([1]; Hepatitis B virus, Hepatocyte, read-out: AVERAGE % INHIBITION HBsAg, COMPOUND 22 555.56 nM alone) of -3.82%. It also gave an inhibition at 1.66667 µM ([1]; Hepatitis B virus, Hepatocyte, read-out: AVERAGE % INHIBITION HBsAg, COMPOUND 22 1666.67 nM alone) of 20.6%, an inhibition at 5 µM ([1]; Hepatitis B virus, Hepatocyte, read-out: AVERAGE % INHIBITION HBsAg, COMPOUND 22 5000.00 nM alone) of 31% and an inhibition at 61.73 µM ([1]; Hepatitis B virus, Hepatocyte, read-out: AVERAGE % INHIBITION, IFNα2a 0.00 IU/mL, COMPOUND 22 61.73 μM) of -13.8%. For the same compound, the inhibition at 185.19 µM ([1]; Hepatitis B virus, Hepatocyte, read-out: AVERAGE % INHIBITION, IFNα2a 0.00 IU/mL, COMPOUND 22 185.19 μM) was -10.6%, the inhibition at 555.56 µM ([1]; Hepatitis B virus, Hepatocyte, read-out: AVERAGE % INHIBITION, IFNα2a 0.00 IU/mL, COMPOUND 22 555.56 μM) was -5.08% and the inhibition at 1666.67 µM ([1]; Hepatitis B virus, Hepatocyte, read-out: AVERAGE % INHIBITION, IFNα2a 0.00 IU/mL, COMPOUND 22 1666.67 μM) was 10.3%. For the same compound, the inhibition at 5000 µM ([1]; Hepatitis B virus, Hepatocyte, read-out: AVERAGE % INHIBITION, IFNα2a 0.00 IU/mL, COMPOUND 22 5000.00 μM) was 23.1%, the inhibition at 0.061728 µM ([1]; Hepatitis B virus, Hepatocyte, read-out: AVERAGE % INHIBITION, TAF 0 nM, COMPOUND 22 61.728 nM) was -0.32% and the inhibition at 0.18519 µM ([1]; Hepatitis B virus, Hepatocyte, read-out: AVERAGE % INHIBITION, TAF 0 nM, COMPOUND 22 185.19 nM) was 2.37%. The inhibition at 0.55556 µM ([1]; Hepatitis B virus, Hepatocyte, read-out: AVERAGE % INHIBITION, TAF 0 nM, COMPOUND 22 555.56 nM) was -2.17%, the inhibition at 1.6667 µM ([1]; Hepatitis B virus, Hepatocyte, read-out: AVERAGE % INHIBITION, TAF 0 nM, COMPOUND 22 1666.7 nM) was 17.7% and the inhibition at 5 µM ([1]; Hepatitis B virus, Hepatocyte, read-out: AVERAGE % INHIBITION, TAF 0 nM, COMPOUND 22 5000 nM) was 20.7%. For the same compound, the EC50 ([1]; Hepatitis B virus, Hepatocyte, read-out: Inhibitor B EC50 HBsAg) was 12.8 µM and the EC50 ([1]; Hepatitis B virus, Hepatocyte, read-out: Inhibitor EC50) was 12.8 µM.
